Measured values reported in ChEMBL document CHEMBL5291721, “A preclinical secondary pharmacology resource illuminates target-adverse drug reaction associations of marketed drugs” (Nat Commun, 2023).

How the values were obtained:
B1 bradykinin receptor = target: T1, B1 bradykinin receptor (Homo sapiens, UniProt P46663)
T1 sequence (P46663 whole entry): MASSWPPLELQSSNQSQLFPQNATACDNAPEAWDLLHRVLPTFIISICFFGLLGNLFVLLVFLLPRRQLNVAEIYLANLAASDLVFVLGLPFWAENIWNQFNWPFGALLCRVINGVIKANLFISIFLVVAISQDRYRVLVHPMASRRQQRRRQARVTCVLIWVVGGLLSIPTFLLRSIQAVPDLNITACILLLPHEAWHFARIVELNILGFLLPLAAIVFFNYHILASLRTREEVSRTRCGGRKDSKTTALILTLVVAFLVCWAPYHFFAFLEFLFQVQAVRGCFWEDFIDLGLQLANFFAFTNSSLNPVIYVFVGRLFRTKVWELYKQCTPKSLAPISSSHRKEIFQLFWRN

Cannabinoid receptor 1 = Cannabinoid receptor 1 (Homo sapiens, UniProt P21554); type: functional
Cannabinoid receptor 1, sequence (P21554 whole entry): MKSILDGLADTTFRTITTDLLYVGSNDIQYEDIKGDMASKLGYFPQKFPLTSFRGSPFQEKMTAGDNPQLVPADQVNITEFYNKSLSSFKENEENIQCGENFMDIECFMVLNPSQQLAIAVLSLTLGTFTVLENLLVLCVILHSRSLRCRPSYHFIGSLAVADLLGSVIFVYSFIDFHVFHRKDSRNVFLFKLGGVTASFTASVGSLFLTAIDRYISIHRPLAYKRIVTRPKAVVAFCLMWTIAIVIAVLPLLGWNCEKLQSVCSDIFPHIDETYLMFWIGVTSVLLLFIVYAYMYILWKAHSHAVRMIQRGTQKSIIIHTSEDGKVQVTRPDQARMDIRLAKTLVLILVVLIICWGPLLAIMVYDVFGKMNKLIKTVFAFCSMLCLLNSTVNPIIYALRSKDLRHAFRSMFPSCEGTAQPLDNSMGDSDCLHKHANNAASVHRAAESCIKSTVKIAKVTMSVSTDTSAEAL

[1] = target: T2, Corticotropin-releasing factor receptor 2 (Homo sapiens, UniProt Q13324)
T2 sequence (Q13324 whole entry): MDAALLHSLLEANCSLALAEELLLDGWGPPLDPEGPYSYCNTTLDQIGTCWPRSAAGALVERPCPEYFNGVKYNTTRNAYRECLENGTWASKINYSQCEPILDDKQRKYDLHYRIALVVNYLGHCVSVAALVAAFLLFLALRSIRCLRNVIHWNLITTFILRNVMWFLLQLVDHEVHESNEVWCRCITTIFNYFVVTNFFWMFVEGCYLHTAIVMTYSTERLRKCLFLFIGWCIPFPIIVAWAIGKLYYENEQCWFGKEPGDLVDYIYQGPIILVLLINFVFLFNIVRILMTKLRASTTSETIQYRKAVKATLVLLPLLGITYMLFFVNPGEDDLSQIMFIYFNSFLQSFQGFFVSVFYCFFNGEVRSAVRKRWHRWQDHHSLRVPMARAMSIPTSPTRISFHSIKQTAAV

Histamine H2 receptor = Histamine H2 receptor (Homo sapiens, UniProt P25021)
Histamine H2 receptor, sequence (P25021 whole entry): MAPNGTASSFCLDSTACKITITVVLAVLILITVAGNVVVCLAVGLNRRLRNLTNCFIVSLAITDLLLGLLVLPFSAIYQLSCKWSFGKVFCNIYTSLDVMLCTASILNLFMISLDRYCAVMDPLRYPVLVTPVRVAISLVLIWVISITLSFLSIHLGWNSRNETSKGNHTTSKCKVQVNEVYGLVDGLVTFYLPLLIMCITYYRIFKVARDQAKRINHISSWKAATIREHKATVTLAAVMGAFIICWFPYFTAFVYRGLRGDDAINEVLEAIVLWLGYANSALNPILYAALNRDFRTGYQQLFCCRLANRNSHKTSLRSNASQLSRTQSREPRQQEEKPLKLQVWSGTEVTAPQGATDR

[2] = target: 5-hydroxytryptamine receptor 6 (Homo sapiens, UniProt P50406)
[3] = target: 5-hydroxytryptamine receptor 7 (Homo sapiens, UniProt P34969)
5-hydroxytryptamine receptor 7, sequence (P34969 whole entry): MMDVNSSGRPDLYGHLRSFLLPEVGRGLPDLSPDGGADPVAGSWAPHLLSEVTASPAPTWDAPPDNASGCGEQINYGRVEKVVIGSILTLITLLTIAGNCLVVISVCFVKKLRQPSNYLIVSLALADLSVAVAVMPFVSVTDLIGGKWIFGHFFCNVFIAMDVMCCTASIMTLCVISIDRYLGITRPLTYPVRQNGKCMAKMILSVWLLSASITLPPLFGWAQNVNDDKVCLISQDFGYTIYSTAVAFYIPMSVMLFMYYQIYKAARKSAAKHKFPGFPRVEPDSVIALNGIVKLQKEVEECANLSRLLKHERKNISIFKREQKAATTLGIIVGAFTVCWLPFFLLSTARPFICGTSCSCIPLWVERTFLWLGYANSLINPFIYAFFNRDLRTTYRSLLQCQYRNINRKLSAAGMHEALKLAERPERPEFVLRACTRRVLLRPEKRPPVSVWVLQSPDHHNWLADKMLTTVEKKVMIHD

[4] = target: Neurotensin receptor type 1 (Homo sapiens, UniProt P30989)
Neurotensin receptor type 1, sequence (P30989 whole entry): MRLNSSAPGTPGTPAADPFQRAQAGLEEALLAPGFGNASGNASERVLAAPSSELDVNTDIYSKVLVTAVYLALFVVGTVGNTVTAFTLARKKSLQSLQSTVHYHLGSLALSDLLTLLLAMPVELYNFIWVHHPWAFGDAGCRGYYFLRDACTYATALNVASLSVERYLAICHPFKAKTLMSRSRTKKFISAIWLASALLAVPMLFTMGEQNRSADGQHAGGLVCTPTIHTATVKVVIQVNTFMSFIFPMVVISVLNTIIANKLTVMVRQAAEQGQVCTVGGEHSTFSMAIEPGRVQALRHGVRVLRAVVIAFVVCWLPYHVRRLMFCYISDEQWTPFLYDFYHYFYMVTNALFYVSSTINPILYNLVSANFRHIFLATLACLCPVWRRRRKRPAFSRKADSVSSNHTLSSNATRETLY

[5] = target: T3, 5-hydroxytryptamine receptor 1A (Homo sapiens, UniProt P08908)
T3 sequence (P08908 whole entry): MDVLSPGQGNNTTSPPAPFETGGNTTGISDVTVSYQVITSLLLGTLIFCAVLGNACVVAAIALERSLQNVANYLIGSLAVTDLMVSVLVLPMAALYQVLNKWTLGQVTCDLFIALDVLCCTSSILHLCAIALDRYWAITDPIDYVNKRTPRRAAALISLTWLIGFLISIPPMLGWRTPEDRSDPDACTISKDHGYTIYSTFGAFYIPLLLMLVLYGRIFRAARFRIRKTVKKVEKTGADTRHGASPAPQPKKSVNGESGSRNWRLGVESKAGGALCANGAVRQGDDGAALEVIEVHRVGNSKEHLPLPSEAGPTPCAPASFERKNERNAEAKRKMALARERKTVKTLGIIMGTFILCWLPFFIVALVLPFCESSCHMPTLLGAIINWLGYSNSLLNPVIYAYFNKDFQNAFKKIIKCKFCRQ

[6] = target: T4, Muscarinic acetylcholine receptor M2 (Homo sapiens, UniProt P08172)
T4 sequence (P08172 whole entry): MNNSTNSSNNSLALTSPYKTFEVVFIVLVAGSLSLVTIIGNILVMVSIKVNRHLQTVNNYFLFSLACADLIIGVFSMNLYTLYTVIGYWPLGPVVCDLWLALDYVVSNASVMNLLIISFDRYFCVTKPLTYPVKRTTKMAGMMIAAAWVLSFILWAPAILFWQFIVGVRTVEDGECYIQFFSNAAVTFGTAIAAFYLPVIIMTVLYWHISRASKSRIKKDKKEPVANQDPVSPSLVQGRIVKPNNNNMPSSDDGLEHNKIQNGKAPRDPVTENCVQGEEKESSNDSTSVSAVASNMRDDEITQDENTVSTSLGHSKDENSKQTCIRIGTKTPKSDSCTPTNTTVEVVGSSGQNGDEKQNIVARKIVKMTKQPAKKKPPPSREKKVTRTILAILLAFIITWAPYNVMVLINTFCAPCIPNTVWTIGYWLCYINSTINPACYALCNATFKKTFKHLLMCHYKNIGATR

[7] = target: T5, Alpha-1A adrenergic receptor (Homo sapiens, UniProt P35348)
T5 sequence (P35348 whole entry): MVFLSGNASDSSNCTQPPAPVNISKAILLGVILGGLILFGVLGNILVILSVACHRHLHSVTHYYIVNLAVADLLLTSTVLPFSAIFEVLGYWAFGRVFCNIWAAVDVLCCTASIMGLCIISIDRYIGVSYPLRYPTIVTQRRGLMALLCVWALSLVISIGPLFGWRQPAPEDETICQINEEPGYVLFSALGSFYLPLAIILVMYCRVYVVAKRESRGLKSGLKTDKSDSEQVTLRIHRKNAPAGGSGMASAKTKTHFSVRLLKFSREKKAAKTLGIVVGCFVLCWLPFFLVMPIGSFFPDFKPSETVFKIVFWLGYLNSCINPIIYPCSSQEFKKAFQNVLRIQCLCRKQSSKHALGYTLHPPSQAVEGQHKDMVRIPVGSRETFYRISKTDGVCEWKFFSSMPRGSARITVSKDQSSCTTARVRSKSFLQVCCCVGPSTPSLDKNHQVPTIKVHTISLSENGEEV

[8] = target: 5-hydroxytryptamine receptor 2A (Homo sapiens, UniProt P28223)
[9] = target: T4, Muscarinic acetylcholine receptor M2; remark: listed apart in the source
Histamine H1 receptor [10] = target: T6, Histamine H1 receptor (Homo sapiens, UniProt P35367); type: functional, cell-based
T6 sequence (P35367 whole entry): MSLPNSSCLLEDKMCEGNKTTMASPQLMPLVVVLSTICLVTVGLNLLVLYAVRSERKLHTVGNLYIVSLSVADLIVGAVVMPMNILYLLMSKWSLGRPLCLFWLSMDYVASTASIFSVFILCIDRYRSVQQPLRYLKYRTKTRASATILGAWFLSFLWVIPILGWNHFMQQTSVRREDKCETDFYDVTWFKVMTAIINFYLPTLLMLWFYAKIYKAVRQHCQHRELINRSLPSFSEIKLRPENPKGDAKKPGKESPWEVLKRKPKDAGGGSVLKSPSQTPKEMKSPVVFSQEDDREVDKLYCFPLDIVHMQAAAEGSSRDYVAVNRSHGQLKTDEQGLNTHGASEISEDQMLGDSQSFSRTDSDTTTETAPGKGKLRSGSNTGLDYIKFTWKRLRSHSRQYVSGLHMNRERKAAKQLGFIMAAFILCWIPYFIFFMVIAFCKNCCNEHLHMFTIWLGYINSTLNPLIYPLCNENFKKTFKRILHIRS

Histamine H1 receptor [11] = target: T6, Histamine H1 receptor; type: functional, cell-based; remark: listed apart in the source
[12] = target: Voltage-dependent L-type calcium channel subunit alpha-1C (Homo sapiens, UniProt Q13936); type: functional, cell-based
Voltage-dependent L-type calcium channel subunit alpha-1C, sequence (Q13936 whole entry): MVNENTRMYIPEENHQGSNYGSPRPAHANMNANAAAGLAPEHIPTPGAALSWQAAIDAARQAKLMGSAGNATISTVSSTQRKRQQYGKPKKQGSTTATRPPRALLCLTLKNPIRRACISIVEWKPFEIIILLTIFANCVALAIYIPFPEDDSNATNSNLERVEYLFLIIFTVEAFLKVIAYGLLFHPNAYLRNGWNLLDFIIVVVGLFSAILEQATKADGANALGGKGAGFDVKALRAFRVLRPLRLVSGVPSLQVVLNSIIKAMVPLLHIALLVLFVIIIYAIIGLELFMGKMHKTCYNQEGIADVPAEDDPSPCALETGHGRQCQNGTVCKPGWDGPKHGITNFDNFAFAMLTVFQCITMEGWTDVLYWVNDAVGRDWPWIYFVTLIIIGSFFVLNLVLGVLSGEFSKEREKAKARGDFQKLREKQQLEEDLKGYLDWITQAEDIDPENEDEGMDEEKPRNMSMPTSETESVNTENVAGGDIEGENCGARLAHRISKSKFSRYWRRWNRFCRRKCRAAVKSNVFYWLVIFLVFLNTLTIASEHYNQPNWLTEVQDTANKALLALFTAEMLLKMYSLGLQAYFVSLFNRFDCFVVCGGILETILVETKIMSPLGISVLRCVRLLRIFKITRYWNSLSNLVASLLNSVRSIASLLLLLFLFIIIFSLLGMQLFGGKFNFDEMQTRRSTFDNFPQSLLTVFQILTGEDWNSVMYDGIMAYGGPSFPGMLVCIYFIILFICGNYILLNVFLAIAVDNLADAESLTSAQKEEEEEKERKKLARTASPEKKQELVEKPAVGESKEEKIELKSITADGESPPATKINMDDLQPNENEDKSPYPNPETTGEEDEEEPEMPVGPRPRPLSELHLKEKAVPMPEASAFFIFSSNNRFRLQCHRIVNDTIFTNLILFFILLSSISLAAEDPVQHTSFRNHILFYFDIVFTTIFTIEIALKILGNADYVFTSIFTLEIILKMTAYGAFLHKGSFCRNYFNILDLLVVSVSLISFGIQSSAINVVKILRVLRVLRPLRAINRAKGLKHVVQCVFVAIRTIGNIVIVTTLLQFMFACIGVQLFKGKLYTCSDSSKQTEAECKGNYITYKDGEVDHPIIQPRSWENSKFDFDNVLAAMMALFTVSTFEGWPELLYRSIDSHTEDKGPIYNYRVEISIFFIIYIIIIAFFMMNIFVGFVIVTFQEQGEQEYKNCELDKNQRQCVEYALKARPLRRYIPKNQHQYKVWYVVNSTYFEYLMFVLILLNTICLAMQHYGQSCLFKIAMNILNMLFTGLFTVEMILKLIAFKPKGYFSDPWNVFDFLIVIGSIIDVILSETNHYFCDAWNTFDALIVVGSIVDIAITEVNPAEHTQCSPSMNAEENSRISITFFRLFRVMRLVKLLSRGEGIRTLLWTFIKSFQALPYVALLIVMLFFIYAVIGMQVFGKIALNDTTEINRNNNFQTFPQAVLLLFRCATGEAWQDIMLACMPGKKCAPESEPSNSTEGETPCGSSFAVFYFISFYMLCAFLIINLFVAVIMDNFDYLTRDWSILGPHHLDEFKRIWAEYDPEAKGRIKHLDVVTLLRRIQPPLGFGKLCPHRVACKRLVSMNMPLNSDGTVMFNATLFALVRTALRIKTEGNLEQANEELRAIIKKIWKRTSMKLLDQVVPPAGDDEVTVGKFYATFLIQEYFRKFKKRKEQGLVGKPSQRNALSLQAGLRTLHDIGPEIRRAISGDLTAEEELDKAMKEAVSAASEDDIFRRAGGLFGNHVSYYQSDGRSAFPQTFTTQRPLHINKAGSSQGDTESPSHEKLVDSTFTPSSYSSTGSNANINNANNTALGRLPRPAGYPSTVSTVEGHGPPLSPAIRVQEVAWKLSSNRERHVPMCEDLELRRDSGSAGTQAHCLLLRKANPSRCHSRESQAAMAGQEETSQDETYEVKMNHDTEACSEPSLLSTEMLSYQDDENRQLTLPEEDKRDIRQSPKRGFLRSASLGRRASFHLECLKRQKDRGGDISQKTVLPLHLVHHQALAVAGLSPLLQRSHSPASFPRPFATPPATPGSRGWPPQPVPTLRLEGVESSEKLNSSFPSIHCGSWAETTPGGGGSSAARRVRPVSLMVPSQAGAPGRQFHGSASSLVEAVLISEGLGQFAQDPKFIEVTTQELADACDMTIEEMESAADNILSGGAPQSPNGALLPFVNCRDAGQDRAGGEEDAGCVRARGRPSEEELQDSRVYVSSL

[13] = target: Hydroxycarboxylic acid receptor 2 (Homo sapiens, UniProt Q8TDS4)
D(1A) dopamine receptor = D(1A) dopamine receptor (Homo sapiens, UniProt P21728)
D(1A) dopamine receptor, sequence (P21728 whole entry): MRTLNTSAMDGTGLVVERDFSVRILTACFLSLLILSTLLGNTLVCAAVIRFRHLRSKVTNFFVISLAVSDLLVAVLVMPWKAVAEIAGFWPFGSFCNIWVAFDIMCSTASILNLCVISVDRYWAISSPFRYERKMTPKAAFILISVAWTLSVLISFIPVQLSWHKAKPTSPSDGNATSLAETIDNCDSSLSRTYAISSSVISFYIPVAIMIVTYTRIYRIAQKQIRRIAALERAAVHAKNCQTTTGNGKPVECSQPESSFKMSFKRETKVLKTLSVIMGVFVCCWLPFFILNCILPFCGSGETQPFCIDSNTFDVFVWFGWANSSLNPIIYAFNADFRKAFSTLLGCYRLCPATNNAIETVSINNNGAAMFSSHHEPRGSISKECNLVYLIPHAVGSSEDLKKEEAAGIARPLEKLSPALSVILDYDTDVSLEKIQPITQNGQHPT

[14] = target: Beta-1 adrenergic receptor (Homo sapiens, UniProt P08588); type: functional, cell-based
Further: assay procedure not described here.

## CCOC(=O)[C@H](CCc1ccccc1)N[C@@H](C)C(=O)N1Cc2ccccc2C[C@H]1C(=O)O
B1 bradykinin receptor
  AC50: > 30 µM
Cannabinoid receptor 1
  AC50: > 10 µM
[1]
  AC50: > 30 µM
Histamine H2 receptor
  AC50: > 10 µM
[2]
  AC50: > 10 µM
[3]
  AC50: > 10 µM
[4]
  AC50: > 30 µM
[5]
  AC50: > 10 µM
[6]
  AC50: > 10 µM
[7]
  AC50: > 10 µM

## C=CC1=C(C(=O)O)N2C(=O)[C@@H](NC(=O)/C(=N\O)c3csc(N)n3)[C@H]2SC1
[8]
  AC50: > 10 µM

## CC#CC(=O)N1CCC[C@H]1c1nc(-c2ccc(C(=O)Nc3ccccn3)cc2)c2c(N)nccn12 [ACALABRUTINIB]
[9]
  AC50: > 30 µM

## O=C(O)COC(=O)Cc1ccccc1Nc1c(Cl)cccc1Cl [ACECLOFENAC]
[5]
  AC50: > 10 µM

## CN(C)CCc1c[nH]c2ccc(CS(=O)(=O)N3CCCC3)cc12 [ALMOTRIPTAN]
Histamine H1 receptor [10]
  AC50: > 30 µM
Histamine H1 receptor [11]
  AC50: > 30 µM

## CN(C)CCC=C1c2ccccc2CCc2ccccc21 [AMITRIPTYLINE]
B1 bradykinin receptor
  AC50: > 30 µM
[12]
  AC50: 32 µM
[1]
  AC50: > 30 µM
[13]
  AC50: > 10 µM
[4]
  AC50: > 30 µM
[5]
  AC50: 3.77 µM

## CN1CC2c3ccccc3Oc3ccc(Cl)cc3C2C1 (stereo unspecified) [ASENAPINE]
D(1A) dopamine receptor
  AC50: 0.01 µM

## CC(=O)Oc1ccccc1C(=O)O [ASPIRIN]
B1 bradykinin receptor
  AC50: > 30 µM
Cannabinoid receptor 1
  AC50: > 10 µM
[1]
  AC50: > 30 µM
Histamine H2 receptor
  AC50: > 10 µM
[2]
  AC50: > 10 µM
[3]
  AC50: > 10 µM
[4]
  AC50: > 30 µM
[5]
  AC50: > 10 µM
[7]
  AC50: > 10 µM
[9]
  AC50: > 30 µM
D(1A) dopamine receptor
  AC50: > 30 µM

## Cn1cnc2c(F)c(Nc3ccc(Br)cc3F)c(C(=O)NOCCO)cc21 [BINIMETINIB]
[12]
  AC50: > 50 µM

## C[C@H](CS)C(=O)N1CCC[C@H]1C(=O)O [CAPTOPRIL]
[5]
  AC50: > 10 µM

## CCN(CC)CCn1c(=O)c(Cc2ccc(OC)cc2)nc2ccccc21 [CAROVERINE]
[14]
  AC50: > 30 µM

## CN(C)CCCC1(c2ccc(F)cc2)OCc2cc(C#N)ccc21 (stereo unspecified) [CITALOPRAM]
B1 bradykinin receptor
  AC50: > 30 µM
[1]
  AC50: > 30 µM
[13]
  AC50: > 10 µM
[4]
  AC50: > 30 µM
[5]
  AC50: > 10 µM

## CC(C)/N=c1\cc2n(-c3ccc(Cl)cc3)c3ccccc3nc-2cc1Nc1ccc(Cl)cc1 [CLOFAZIMINE]
[14]
  AC50: > 30 µM

## C[C@]12CCC(=O)C=C1CC[C@H]1[C@@H]3CC[C@](O)(C(=O)CO)[C@@]3(C)C[C@H](O)[C@@]12F [FLUDROCORTISONE]
B1 bradykinin receptor
  AC50: > 30 µM
[1]
  AC50: > 30 µM
Histamine H2 receptor
  AC50: > 10 µM
[4]
  AC50: > 30 µM
[5]
  AC50: > 10 µM
[6]
  AC50: > 10 µM
[8]
  AC50: > 10 µM

## CCOC(=O)Nc1ccc(NCc2ccc(F)cc2)nc1N [FLUPIRTINE]
[14]
  AC50: > 30 µM

## NCC1(CC(=O)O)CCCCC1 [GABAPENTIN]
B1 bradykinin receptor
  AC50: > 30 µM
Cannabinoid receptor 1
  AC50: > 10 µM
[1]
  AC50: > 30 µM
Histamine H2 receptor
  AC50: > 10 µM
[2]
  AC50: > 10 µM
[3]
  AC50: > 10 µM
[4]
  AC50: > 30 µM
[5]
  AC50: > 10 µM
[6]
  AC50: > 10 µM
[7]
  AC50: > 10 µM
[9]
  AC50: > 30 µM
D(1A) dopamine receptor
  AC50: > 30 µM

## OCCOCCN1CCN(C(c2ccccc2)c2ccc(Cl)cc2)CC1 (stereo unspecified) [HYDROXYZINE]
B1 bradykinin receptor
  AC50: > 30 µM
[1]
  AC50: > 30 µM
[13]
  AC50: > 10 µM
Histamine H1 receptor [10]
  AC50: > 30 µM
Histamine H1 receptor [11]
  AC50: 0.45 µM
Histamine H2 receptor
  AC50: 0.188 µM
[2]
  AC50: 2.2 µM
[3]
  AC50: 6.8 µM
[4]
  AC50: > 30 µM
[5]
  AC50: > 10 µM
[6]
  AC50: 9.04 µM
[7]
  AC50: 0.546 µM
[8]
  AC50: 0.146 µM

## N#Cc1ccnc(N2C(=O)CC[C@H]2C(=O)N(c2cncc(F)c2)[C@H](C(=O)NC2CC(F)(F)C2)c2ccccc2Cl)c1 [IVOSIDENIB]
[12]
  AC50: > 50 µM

## Nc1nnc(-c2cccc(Cl)c2Cl)c(N)n1 [LAMOTRIGINE]
B1 bradykinin receptor
  AC50: > 30 µM
[12]
  AC50: > 50 µM
[1]
  AC50: > 30 µM
[13]
  AC50: > 10 µM
Histamine H2 receptor
  AC50: > 10 µM
[4]
  AC50: > 30 µM
[5]
  AC50: > 10 µM
[6]
  AC50: > 10 µM
[7]
  AC50: 11.1 µM

## CC(=O)NC[C@H]1CN(c2ccc(N3CCOCC3)c(F)c2)C(=O)O1 [LINEZOLID]
[12]
  AC50: > 50 µM

## C#CCN(C)Cc1ccccc1 [PARGYLINE]
Histamine H1 receptor [10]
  AC50: > 30 µM
Histamine H1 receptor [11]
  AC50: > 30 µM

## CC(=O)SCC(Cc1ccccc1)C(=O)NCC(=O)OCc1ccccc1 (stereo unspecified) [RACECADOTRIL]
Histamine H2 receptor
  AC50: > 10 µM
[5]
  AC50: > 10 µM
[6]
  AC50: > 10 µM
[8]
  AC50: > 10 µM

## CCOc1ccccc1OCCN[C@H](C)Cc1ccc(OC)c(S(N)(=O)=O)c1 [TAMSULOSIN]
[8]
  AC50: 14.4 µM

## Cc1c(C)c2c(c(C)c1O)CCC(C)(COc1ccc(CC3SC(=O)NC3=O)cc1)O2 (stereo unspecified) [TROGLITAZONE]
B1 bradykinin receptor
  AC50: > 30 µM
[1]
  AC50: > 30 µM
[4]
  AC50: > 30 µM
